# Experimental data published in PMC7047128, “The Putative TCP-1 Chaperonin Is an Important Player Involved in Sialic Acid-Dependent Host Cell Invasion by Toxoplasma gondii” (Frontiers in Microbiology, 2020).
# Molecular target: T1, TgTCP-1 (putative TCP-1 chaperonin, TGME49_318410) (Toxoplasma gondii, UniProt A0A125YLR8)
# T1 construct: full-length CDS, aa 1-537, N-terminal GST tag kept (pGEX-4T-1), E. coli BL21 (DE3), about 85 kDa
# Test: pull-down on sialic acid-agarose with competition by free sialic acid, anti-GST Western blot
# Assay type: binding
# Details: 1 uM GST-TgTCP-1; free sialic acid 0.001-100 mg/mL; PBS wash; 4 C
# T1 sequence (A0A125YLR8 entry or part of it): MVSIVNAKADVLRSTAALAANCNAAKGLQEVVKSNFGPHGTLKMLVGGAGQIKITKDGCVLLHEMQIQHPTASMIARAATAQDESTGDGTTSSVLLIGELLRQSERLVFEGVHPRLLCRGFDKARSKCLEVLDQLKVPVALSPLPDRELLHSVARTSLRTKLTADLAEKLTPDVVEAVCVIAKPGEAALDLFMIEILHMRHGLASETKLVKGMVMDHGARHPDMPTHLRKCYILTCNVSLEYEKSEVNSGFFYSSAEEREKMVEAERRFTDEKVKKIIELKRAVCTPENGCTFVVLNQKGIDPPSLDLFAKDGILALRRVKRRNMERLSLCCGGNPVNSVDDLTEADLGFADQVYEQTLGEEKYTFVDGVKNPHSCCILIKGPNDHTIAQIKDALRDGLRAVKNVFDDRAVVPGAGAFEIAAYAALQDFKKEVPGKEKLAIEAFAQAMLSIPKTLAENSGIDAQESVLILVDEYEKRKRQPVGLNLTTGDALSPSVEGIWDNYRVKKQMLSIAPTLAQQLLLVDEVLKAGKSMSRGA
smiles,measurement,value
CC(=O)N[C@H]1[C@H]([C@H](O)[C@H](O)CO)OC(O)(C(=O)O)C[C@@H]1O (stereo partly shown) [sialic acid],"pull-down on sialic acid-agarose with competition by free sialic acid, anti-GST",binding of GST-TgTCP-1 to sialic acid-agarose was inhibited by sialic acid in a dose dependent manner
